Laboratory results as given in US20220267260A1, “COMPOUNDS CONTAINING A SULFONIC GROUP AS KAT INHIBITORS” (Epizyme, Inc., priority 2016, published 2022).

Experiments:
KAT5 = target: T1, KAT5 (Homo sapiens, UniProt Q92993); test: KAT5 enzyme inhibition assay (SAMDI mass spectrometry); assay type: biochemical; conditions: His-TEV-FL KAT5-Flag enzyme construct
T1 construct: His-TEV tag (N, cleaved yes); made in house

KAT6A = target: T2, KAT6A (Homo sapiens, UniProt Q92794); test: KAT6A enzyme inhibition assay (SAMDI mass spectrometry); assay type: biochemical; conditions: His-TEV-KAT6A 501-784 enzyme construct
T2 construct: His-TEV tag (N, cleaved yes); made in house
T2 sequence (Q92794 with tags, fused parts or gaps): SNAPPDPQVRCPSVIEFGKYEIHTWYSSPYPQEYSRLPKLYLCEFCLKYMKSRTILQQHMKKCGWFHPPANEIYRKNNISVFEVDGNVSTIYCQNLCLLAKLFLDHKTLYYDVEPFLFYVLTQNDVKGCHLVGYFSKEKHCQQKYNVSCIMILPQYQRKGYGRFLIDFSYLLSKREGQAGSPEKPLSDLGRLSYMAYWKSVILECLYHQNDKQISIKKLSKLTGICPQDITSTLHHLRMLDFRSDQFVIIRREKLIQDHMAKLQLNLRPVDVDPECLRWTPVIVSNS

T1 sequence (Q92993 with tags, fused parts or gaps): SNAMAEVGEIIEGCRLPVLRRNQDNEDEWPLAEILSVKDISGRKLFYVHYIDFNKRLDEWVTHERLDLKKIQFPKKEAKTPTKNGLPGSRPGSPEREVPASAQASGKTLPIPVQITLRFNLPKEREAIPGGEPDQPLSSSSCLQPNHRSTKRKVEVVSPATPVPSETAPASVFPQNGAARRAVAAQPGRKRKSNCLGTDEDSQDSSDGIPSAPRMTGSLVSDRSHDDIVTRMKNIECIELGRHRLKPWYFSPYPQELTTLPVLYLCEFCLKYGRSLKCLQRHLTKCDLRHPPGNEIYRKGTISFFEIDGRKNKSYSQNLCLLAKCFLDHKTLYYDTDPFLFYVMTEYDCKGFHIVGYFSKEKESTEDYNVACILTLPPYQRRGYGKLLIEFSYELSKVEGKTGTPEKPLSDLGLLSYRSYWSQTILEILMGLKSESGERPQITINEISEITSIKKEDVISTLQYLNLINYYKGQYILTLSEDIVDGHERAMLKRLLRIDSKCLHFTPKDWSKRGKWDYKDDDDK

IC50 (KAT5) [µM]	IC50 (KAT6A) [µM]	SMILES
> 100	> 100	O=C(NNS(=O)(=O)C1CCOCC1)c1cc(Cn2cccn2)cc(Cl)c1F [Compound I-464]
> 100	> 100	O=C(NNS(=O)(=O)C1CCCCC1)c1c(F)c(-c2ccccc2)cc2nc[nH]c12 [Compound I-467]
> 100	> 100	Cn1cnc2c(C(=O)NNS(=O)(=O)C3CCCCC3)c(F)c(-c3ccccc3)cc21 [Compound I-468]
> 100	> 100	Cc1nn(C)c(C(=O)NNS(=O)(=O)C2CCCCC2)c1F [Compound I-469]
> 100	> 100	Cc1cc(-c2ccccc2)cc(C(=O)NNCC(F)(F)F)c1F [Compound I-476]
≤ 10	10 to 50	O=C(NNS(=O)(=O)C1CCCCC1)c1cc(-c2cccc(CO)c2)cc(Cl)c1F [Compound I-485]
> 100	> 100	CNC(=O)c1cc(Cl)c(F)c(C(=O)NNS(=O)(=O)C2CCOCC2)c1 [Compound I-491]
10 to 50	10 to 50	O=C(NNS(=O)(=O)CC1CCCCC1)c1cc(-c2c[nH]cn2)ccc1F [Compound I-495]
10 to 50	10 to 50	CCc1cc(F)cc(-c2cc(Cl)c(F)c(C(=O)NNS(=O)(=O)C3CCCCC3)c2)c1 [Compound I-498]
> 100	> 100	CNC(=O)Cn1nc(C)cc1C(=O)NNS(=O)(=O)C1CCCCC1 [Compound I-500]
> 100	> 100	Cc1nn(CC(=O)NC2CCC2)c(C(=O)NNS(=O)(=O)C2CCCCC2)c1F [Compound I-501]
> 100	> 100	CNC(=O)CCNC(=O)Cn1nc(C)c(F)c1C(=O)NNS(=O)(=O)C1CCCCC1 [Compound I-505]
≤ 10	> 100	O=C(NNS(=O)(=O)CC1CCCCC1)c1cc(-c2cn3ccccc3n2)cc(Cl)c1F [Compound I-510]
≤ 10	> 100	CCS(=O)(=O)N1CCCC(CS(=O)(=O)NNC(=O)c2cc(-c3cccc(C)c3)cc(Cl)c2F)C1 (stereo not drawn) [Compound I-511]

More lines, now with the values behind:

SMILES	IC50 (KAT5) [µM]	IC50 (KAT6A) [µM]
Nc1ccc(-c2cc(Cl)c(F)c(C(=O)NNS(=O)(=O)C3CCCCC3)c2)cc1 [Compound I-463]	≤ 10	> 100
O=C(NNS(=O)(=O)C1CCOCC1)c1cc(CO)cc(Cl)c1F [Compound I-465]	> 100	50 to 100
O=C(NNS(=O)(=O)CC1CCOCC1)c1cc(CO)cc(Cl)c1F [Compound I-466]	10 to 50	10 to 50
O=C(NCCO)c1cc(Cl)c(F)c(C(=O)NNS(=O)(=O)C2CCCCC2)c1 [Compound I-470]	50 to 100	> 100
COCCN(C)C(=O)c1cc(Cl)c(F)c(C(=O)NNS(=O)(=O)C2CCOCC2)c1 [Compound I-471]	> 100	> 100
CCNC(=O)c1cc(Cl)c(F)c(C(=O)NNS(=O)(=O)C2CCCCC2)c1 [Compound I-472]	> 100	> 100
O=C(NC1CCC1)c1cc(Cl)c(F)c(C(=O)NNS(=O)(=O)C2CCCCC2)c1 [Compound I-473]	> 100	> 100
CNC(=O)CCNC(=O)c1cc(Cl)c(F)c(C(=O)NNS(=O)(=O)C2CCCCC2)c1 [Compound I-474]	> 100	> 100
Cc1c(F)c(C(=O)NNS(=O)(=O)C2CCCCC2)nn1C [Compound I-475]	> 100	> 100
COCCNC(=O)c1cccc(-c2cc(C)c(F)c(C(=O)N(N)S(=O)(=O)c3ccccc3)c2)c1 [Compound I-477]	> 100	> 100
Cn1cc(-c2ccc(F)c(Cl)c2)nc1C(=O)NNS(=O)(=O)CC1CCOCC1 [Compound I-478]	> 100	> 100
O=C(NNS(=O)(=O)C1CCCCC1)c1nc(-c2ccccc2)cc(Cl)c1F [Compound I-479]	> 100	50 to 100
O=C(NCCO)c1cc(Cl)c(F)c(C(=O)NNS(=O)(=O)C2CCOCC2)c1 [Compound I-480]	> 100	> 100
CNC(=O)Cn1nc(C(=O)NNS(=O)(=O)C2CCCCC2)cc1C [Compound I-481]	> 100	> 100
O=C(NNS(=O)(=O)C1CCOCC1)c1cc(-c2cccc(CO)c2)cc(Cl)c1F [Compound I-482]	10 to 50	10 to 50
Cc1cc(-c2ccccc2)nc(C(=O)NNS(=O)(=O)C2CCCCC2)c1F [Compound I-483]	50 to 100	> 100
Cc1cc(F)cc(-c2cc(Cl)c(F)c(C(=O)NNS(=O)(=O)C3CCCCC3)c2)c1 [Compound I-484]	10 to 50	10 to 50

SMILES	IC50 (KAT5) [µM]	IC50 (KAT6A) [µM]
COc1cc(F)cc(-c2cc(Cl)c(F)c(C(=O)NNS(=O)(=O)C3CCCCC3)c2)c1 [Compound I-486]	10 to 50	10 to 50
O=C(NNS(=O)(=O)C1CCCCC1)c1cc(-c2cc(Cl)cc(Cl)c2)cc(Cl)c1F [Compound I-487]	10 to 50	10 to 50
O=C(NC1CCC1)c1cc(Cl)c(F)c(C(=O)NNS(=O)(=O)C2CCOCC2)c1 [Compound I-488]	> 100	> 100
CNC(=O)Cn1nc(C(=O)NNS(=O)(=O)C2CCCCC2)c(F)c1C [Compound I-489]	> 100	> 100
O=C(NNS(=O)(=O)C1CCCCC1)c1cc(-c2cc(F)cc(Cl)c2)cc(Cl)c1F [Compound I-490]	50 to 100	10 to 50
CCNC(=O)c1cc(Cl)c(F)c(C(=O)NNS(=O)(=O)C2CCOCC2)c1 [Compound I-492]	> 100	> 100
CNC(=O)CCNC(=O)c1cc(Cl)c(F)c(C(=O)NNS(=O)(=O)C2CCOCC2)c1 [Compound I-493]	> 100	> 100
COCCNC(=O)c1cccc(-c2cc(C)c(F)c(C(=O)NNS(=O)(=O)c3ccccc3)c2)c1 [Compound I-494]	10 to 50	≤ 10
CNC(=O)Cn1cc(F)c(C(=O)NNS(=O)(=O)C2CCCCC2)n1 [Compound I-496]	> 100	> 100
O=C(NNS(=O)(=O)c1ccccc1)c1c(F)ccc(-c2cnc[nH]2)c1F [Compound I-497]	50 to 100	10 to 50
O=C(NNS(=O)(=O)c1cccc(Cl)c1)c1c(F)ccc(-c2cnc[nH]2)c1F [Compound I-499]	> 100	> 100
Cc1nn(CC(=O)NCCN(C)C)c(C(=O)NNS(=O)(=O)C2CCCCC2)c1F [Compound I-502]	> 100	> 100
CNC(=O)Cn1nc(C)c(F)c1C(=O)NNS(=O)(=O)C1CCCCC1 [Compound I-503]	> 100	> 100
Cc1nn(CC(=O)NCCO)c(C(=O)NNS(=O)(=O)C2CCCCC2)c1F [Compound I-504]	> 100	> 100
COCCN1CCC(CS(=O)(=O)NNC(=O)c2cc(-c3ccccc3)cc(C)c2F)CC1 [Compound I-507]	≤ 10	≤ 10
Cc1cccc(-c2cc(Cl)c(F)c(C(=O)NNS(=O)(=O)CC3CCCN(C(=O)C4CCC4)C3)c2)c1 (stereo not drawn) [Compound I-512]	≤ 10	> 100
Cc1cccc(-c2cc(Cl)c(F)c(C(=O)NNS(=O)(=O)CC3CCCN(C(=O)OC(C)(C)C)C3)c2)c1 (stereo not drawn) [Compound I-513]	≤ 10	> 100
